According to article PMC9212912 (Structure (London, England : 1993), 2022):

What was measured:
Calu-3 cells = conditions: 0.01 µM
BRD4 ET domain = BRD4 ET domain (Homo sapiens, UniProt O60885); format: binding; conditions: 20 mM Tris pH 7.0, 100 mM NaCl, 3 mM DTT, 10% D2O
[1] = test system: native human MYST-family HAT complexes purified via MEAF6 (MYST); assay: In vitro acetyltransferase assay, 3H-acetyl incorporation; format: biochemical; conditions: 0.5 μg peptide, 3H Ac-CoA, 30 minutes at 30 °C, liquid scintillation
[2] = test system: native human MYST-family HAT complex purified via BRPF2 (HBO1); assay: as above; format: biochemical; conditions: 0.5 μg peptide, 3H Ac-CoA, 30 minutes at 30 °C, liquid scintillation
[3] = test system: human HAT complex NuA4/TIP60; assay: In vitro acetyltransferase assay; format: biochemical
human HAT complex SAGA = assay: In vitro acetyltransferase assay; format: biochemical

Cc1sc2c(c1C)C(c1ccc(Cl)cc1)=N[C@@H](CC(=O)Nc1ccc(O)cc1)c1nnc(C)n1-2 [OTX015]
Calu-3 cell viability (Calu-3 cells): 98%

SARS-CoV-2 E^53−72: longer non-acetylated peptide, aa 53–72 of SARS-CoV-2 E (KPSFYVYSRVKNLNSSRVPD)
Chemical shift perturbations in BRD4 ET upon peptide addition (BRD4 ET domain): did not alter the pattern of CSPs

SARS-CoV-2 E^57−69: peptide, aa 57–69 of SARS-CoV-2 E (YVYSRVKNLNSSR)
Chemical shift perturbations in BRD4 ET upon peptide addition (BRD4 ET domain): small CSPs

SARS-CoV-2 E^48−72: peptide, aa 48–72 of SARS-CoV-2 E, acetyltransferase substrate (NVSLVKPSFYVYSRVKNLNSSRVPD; UniProt P0DTC4 48-72, looked up, fragment)
Acetylation of the peptide by MYST (MEAF6) complexes [1]: able to some extent acetylate | Acetylation of the peptide by HBO1 (BRPF2) complex [2]: able to some extent acetylate | Acetylation of the peptide by NuA4/TIP60 [3]: undetectable | Acetylation of the peptide by SAGA (human HAT complex SAGA): undetectable
